Data taken from patent publication US9085605B2, “Chemical synthesis and anti-tumor and anti-metastatic effects of dual functional conjugate” (Shenzhen Salubris Pharmaceuticals Co., Ltd., priority 2010, dated 2015).
Read-outs that look alike come from different tables or passages of the source.

Experiments:
[1] = Toxicity test by single dose, intravenous; format: in vivo, ICR mice
[2] = test system: clear Human ovarian cell cancer ES-2; assay: Xenograft tumor nude mice screening, ES-2; format: in vivo, BALB/c nu mice; conditions: 30 mg/kg i.p., 10~12 times
Procedure: (§1) Certificate NO. SCXK (BeiJing) 2005-0013. • Cell lines: The tumor cell lines were passaged and cultured by our Lab, some of them was obtained from ATCC. • The tumor cell lines included: Human breast cancer MX-1 and MCF-7. • Human ovarian cancer A2780, and clear Human ovarian cell cancer ES-2, • Human lung cancer H1975 and A549. Experiment Method: • 1. […] The administration dose and treatment progress was determined based from the preliminary experiments, which had solid effects and the shortest treatment period—the dose of 30 mg/kg/day, and the administration duration time of every lot experiment was not more than 12 days.

Human breast cancer MX-1 = assay: Xenograft tumor nude mice screening, MX-1; format: in vivo, BALB/c nu mice; conditions: 30 mg/kg i.p., 10~12 times
Procedure: as §1

[3] = test system: Human ovarian cancer A2780; assay: Xenograft tumor nude mice screening, A2780; format: in vivo, BALB/c nu mice; conditions: 30 mg/kg i.p., 10~12 times
Procedure: as §1

[4] = 112.5 mg·kg^−1 i.v. single dose

Source text for Human lung cancer H460: Through cell culture in vitro, the tumor was inoculated on nude mice, the tumor grew and passaged for the experiment use. • Animals: BALB/c nude mice, ♀, 4˜5 weeks old, were obtained from the Experimental Lab, Chinese Academy of Medical Science, Certificate NO. […] Experiment Method:
The tumor-bearing mice with good tumor growth and good general physical condition were selected and sacrificed. Tumor was isolated in a sterile condition and cut into fragments (diameter for about 2-3 mm) by surgical knife. The fragments were then hypodermically inoculated in posterior axillary of nude mice by means of a trocar.
After the tumors grew naturally for eight days, the average volume of tumors reaches 130 mm^3. The length and width of tumor was measured using vernier calipers, and divided into groups by the tumor volume.
The mice were divided into five groups for observation, each groups had eight mice. […] Respective drug was administrated for each group from the grouping day.
The experiment was terminated 24 hours after the last administration.
During the experimentation, the tumors sizes (length and width) and body weights of mice were measured once every three days. The tumor volume (TV) and relative tumor volume (RTV) were calculated according to the method for references, and the tumor volume growth tendency chart was plotted.
At the end of the experiment, the mice were sacrificed. Tumors were removed and weighed, and the inhibition rate of the tumor growth by drugs was calculated. Statistical significance of the tumor weight, tumor volume and RTV level were evaluated by t-test.
[formula] • (C, average tumor weight of control group; T, average tumor weight of administrated group) • Tumor Volume (TV)=length×width^2/2. • Relative Tumor Volume (RTV) formula: Vt/Vo • (Vo is the volume of TV at the beginning of the grouping, and Vt is the volume of TV at measure time) • Anti-tumor activities were evaluated by Tumor Relative proliferation Rate T/C (%)
[formula] • Therapeutic effect evaluation standard: T/C (%)>40, was judged as invalid; • T/C (%)≦40, and through statistical evaluation P<0.05, was judged as valid.

SMILES: CC(=O)O[C@H]1C(=O)[C@@]2(C)[C@H]([C@H](OC(=O)c3ccccc3)[C@]3(O)C[C@H](OC(=O)[C@H](OC(=O)CCC(=O)NCCCCC(NC(=O)CC[C@H](NC(=O)C(C)NC(=O)/C=C/c4ccc(Cl)cc4)C(N)=O)C(N)=O)[C@@H](NC(=O)c4ccccc4)c4ccccc4)C(C)=C1C3(C)C)[C@]1(OC(C)=O)CO[C@@H]1C[C@@H]2O (some centres unmarked) [MTC-220]
- Anatomical examination of organs [1, 4]: no sign of abnormal changes
- Body weight compared with control group [1, 4]: not significantly different
- Symptoms after injection [1, 4]: voluntary activities of mice in administered group were reduced, some mice showed jumping symptoms
- Time to recovery from symptoms [1, 4]: about 10 min
- Death ([1]; 112.5 mg·kg^−1 i.v. single dose, 14 days observation): no death occured
- MTD at 14 days ([1]; mouse, in vivo, 112.5 mg·kg^−1, single intravenous injection, ICR mice): > 112 mg/kg
- Inhibition of tumor growth (in words) [2]: at certain degree, but didn't attain the valid standard
- Inhibition of tumor growth (in words) (Human breast cancer MX-1): weak
- Inhibition of tumor growth (in words) [3]: at certain degree, but didn't attain the valid standard
- Body weight Beginning (Human lung cancer H460; 5 mg/kg × 25, i.p.): 18.0 ± 0.95 g
- Body weight End (Human lung cancer H460; 5 mg/kg × 25, i.p.): 21.9 ± 1.10 g
- RTV (Human lung cancer H460; 5 mg/kg × 25, i.p.): 32.0 ± 8.27
- T/C (Human lung cancer H460; 5 mg/kg × 25, i.p.): 96.2%
- TGI (Human lung cancer H460; 5 mg/kg × 25, i.p.): 2.15%
- Tumor volume Beginning (Human lung cancer H460; 5 mg/kg × 25, i.p.): 125 ± 36.8 mm^3
- Tumor volume End (Human lung cancer H460; 5 mg/kg × 25, i.p.): 3737 ± 591.0 mm^3
- Tumor weight (Human lung cancer H460; 5 mg/kg × 25, i.p.): 2.91 ± 0.695 g
- Growth rate of tumor volume compared to negative control (Human lung cancer H460; 5 mg/kg, 25 days successive administration): not significantly different
- Body weight Beginning (Human lung cancer H460; 10 mg/kg × 25, i.p.): 18.2 ± 0.70 g
- Body weight End (Human lung cancer H460; 10 mg/kg × 25, i.p.): 21.4 ± 1.15 g
- RTV (Human lung cancer H460; 10 mg/kg × 25, i.p.): 27.7 ± 6.81
- T/C (Human lung cancer H460; 10 mg/kg × 25, i.p.): 83.1%
- TGI (Human lung cancer H460; 10 mg/kg × 25, i.p.): 17.3%
- Tumor volume Beginning (Human lung cancer H460; 10 mg/kg × 25, i.p.): 125 ± 43.0 mm^3
- Tumor volume End (Human lung cancer H460; 10 mg/kg × 25, i.p.): 3274 ± 797.0 mm^3
- Tumor weight (Human lung cancer H460; 10 mg/kg × 25, i.p.): 2.46 ± 0.624 g
- Tumor volume inhibition (Human lung cancer H460; 10 mg/kg, end of the experiment): 18.8%
- Body weight Beginning (Human lung cancer H460; 20 mg/kg × 25, i.p.): 17.8 ± 1.10 g
- Body weight End (Human lung cancer H460; 20 mg/kg × 25, i.p.): 18.9 ± 2.49 g
- RTV (Human lung cancer H460; 20 mg/kg × 25, i.p.): 16.7 ± 9.93
- T/C (Human lung cancer H460; 20 mg/kg × 25, i.p.): 50.1%
- TGI (Human lung cancer H460; 20 mg/kg × 25, i.p.): 52.9%
- Tumor volume Beginning (Human lung cancer H460; 20 mg/kg × 25, i.p.): 123 ± 44.6 mm^3
- Tumor volume End (Human lung cancer H460; 20 mg/kg × 25, i.p.): 1963 ± 641.9 mm^3
- Tumor weight (Human lung cancer H460; 20 mg/kg × 25, i.p.): 1.40 ± 0.466 g
